Assays:
Assay in all cases: single sensillum recording, transgenic fly at1 neurons
HarmOR6 = biological target: T1, HarmOR6 (Helicoverpa armigera, UniProt R4JSE3); conditions: agonist; mass loaded on filter paper in stimulus cartridge (10 μL in paraffin oil), 300 ms pulse; not a molar concentration
T1 construct: gene OR6; ORF in pVALIUM20, UAS-OR transgene expressed in Drosophila at1 neurons (Or67dGAL4 knock-in), host endogenous Orco; with Odorant receptor coreceptor (Drosophila melanogaster, endogenous in host neuron)
T1 sequence (R4JSE3 1-425): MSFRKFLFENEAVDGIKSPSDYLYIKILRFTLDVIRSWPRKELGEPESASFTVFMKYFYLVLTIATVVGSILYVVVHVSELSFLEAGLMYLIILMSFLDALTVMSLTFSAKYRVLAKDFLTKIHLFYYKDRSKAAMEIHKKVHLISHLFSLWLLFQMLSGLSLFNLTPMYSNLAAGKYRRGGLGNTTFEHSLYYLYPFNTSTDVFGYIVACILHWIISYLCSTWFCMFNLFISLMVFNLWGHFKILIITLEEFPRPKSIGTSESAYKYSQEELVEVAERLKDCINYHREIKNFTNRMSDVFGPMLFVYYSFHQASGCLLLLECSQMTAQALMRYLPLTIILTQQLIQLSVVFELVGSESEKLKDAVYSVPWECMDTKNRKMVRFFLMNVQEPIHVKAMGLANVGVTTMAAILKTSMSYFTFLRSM
T1 sequence (Q9VNB5 1-486 partner): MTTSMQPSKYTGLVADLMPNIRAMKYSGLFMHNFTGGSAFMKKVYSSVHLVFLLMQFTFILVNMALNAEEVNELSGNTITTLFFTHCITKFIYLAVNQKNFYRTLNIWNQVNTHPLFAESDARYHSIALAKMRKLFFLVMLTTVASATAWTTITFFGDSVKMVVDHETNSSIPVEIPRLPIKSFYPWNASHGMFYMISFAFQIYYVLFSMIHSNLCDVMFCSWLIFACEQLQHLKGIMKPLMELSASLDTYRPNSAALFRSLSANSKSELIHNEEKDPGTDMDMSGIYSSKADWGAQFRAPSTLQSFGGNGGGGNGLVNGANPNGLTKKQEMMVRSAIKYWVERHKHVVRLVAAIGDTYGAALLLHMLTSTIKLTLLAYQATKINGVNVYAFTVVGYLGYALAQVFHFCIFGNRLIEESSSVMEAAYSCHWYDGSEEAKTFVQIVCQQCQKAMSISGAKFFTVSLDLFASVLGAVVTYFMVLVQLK

HvirOR6 = tested on: T2, HvirOR6; parameters: species or system Heliothis virescens; conditions: agonist; mass loaded on filter paper in stimulus cartridge (10 μL in paraffin oil), 300 ms pulse; not a molar concentration
T2 construct: gene OR6; ORF in pVALIUM20, UAS-OR transgene expressed in Drosophila at1 neurons (Or67dGAL4 knock-in), host endogenous Orco; with Odorant receptor coreceptor (Drosophila melanogaster, endogenous in host neuron)

HassOR6 = biological target: T3, HassOR6 (Helicoverpa assulta, UniProt R4JLZ7); conditions: agonist; mass loaded on filter paper in stimulus cartridge (10 μL in paraffin oil), 300 ms pulse; not a molar concentration
T3 construct: gene OR6; ORF in pVALIUM20, UAS-OR transgene expressed in Drosophila at1 neurons (Or67dGAL4 knock-in), host endogenous Orco; with Odorant receptor coreceptor (Drosophila melanogaster, endogenous in host neuron)
T3 sequence (R4JLZ7 1-425): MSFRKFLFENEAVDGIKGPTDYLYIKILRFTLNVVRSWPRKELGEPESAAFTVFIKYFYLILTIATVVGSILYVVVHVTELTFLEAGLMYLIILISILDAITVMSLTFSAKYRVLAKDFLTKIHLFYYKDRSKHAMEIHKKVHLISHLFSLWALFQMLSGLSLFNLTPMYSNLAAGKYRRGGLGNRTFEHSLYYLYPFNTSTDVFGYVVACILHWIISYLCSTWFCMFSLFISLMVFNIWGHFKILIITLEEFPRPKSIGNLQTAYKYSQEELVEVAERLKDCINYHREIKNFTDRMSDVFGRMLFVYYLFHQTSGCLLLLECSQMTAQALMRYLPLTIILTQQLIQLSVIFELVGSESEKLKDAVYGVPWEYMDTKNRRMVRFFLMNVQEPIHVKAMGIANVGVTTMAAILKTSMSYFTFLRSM
T3 sequence (Q9VNB5 1-486 partner): T1 sequence (Q9VNB5 1-486 partner)

HassOR13 = biological target: T4, HassOR13 (Helicoverpa assulta, UniProt A0A0B4ZYC6); conditions: agonist; mass loaded on filter paper in stimulus cartridge (10 μL in paraffin oil), 300 ms pulse; not a molar concentration
T4 construct: gene OR13; ORF in pVALIUM20, UAS-OR transgene expressed in Drosophila at1 neurons (Or67dGAL4 knock-in), host endogenous Orco; with Odorant receptor coreceptor (Drosophila melanogaster, endogenous in host neuron)
T4 sequence (A0A0B4ZYC6 1-425): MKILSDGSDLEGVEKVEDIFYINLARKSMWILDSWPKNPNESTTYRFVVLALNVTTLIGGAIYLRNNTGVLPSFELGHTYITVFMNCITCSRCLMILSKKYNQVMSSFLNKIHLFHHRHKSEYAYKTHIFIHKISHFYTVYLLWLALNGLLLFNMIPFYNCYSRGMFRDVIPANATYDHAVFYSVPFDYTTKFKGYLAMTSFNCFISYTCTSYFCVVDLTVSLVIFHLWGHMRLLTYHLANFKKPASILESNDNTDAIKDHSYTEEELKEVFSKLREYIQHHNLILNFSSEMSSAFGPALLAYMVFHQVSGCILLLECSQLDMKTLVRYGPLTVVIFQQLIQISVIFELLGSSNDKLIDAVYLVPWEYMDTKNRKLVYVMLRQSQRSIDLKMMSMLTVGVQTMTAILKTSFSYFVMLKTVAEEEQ
T4 sequence (Q9VNB5 1-486 partner): T1 sequence (Q9VNB5 1-486 partner)

HarmOR13 = biological target: T5, HarmOR13 (Helicoverpa armigera, UniProt A0A075TD52); conditions: agonist; mass loaded on filter paper in stimulus cartridge (10 μL in paraffin oil), 300 ms pulse; not a molar concentration
T5 construct: gene OR13; ORF in pVALIUM20, UAS-OR transgene expressed in Drosophila at1 neurons (Or67dGAL4 knock-in), host endogenous Orco; with Odorant receptor coreceptor (Drosophila melanogaster, endogenous in host neuron)
T5 sequence (A0A075TD52 1-425): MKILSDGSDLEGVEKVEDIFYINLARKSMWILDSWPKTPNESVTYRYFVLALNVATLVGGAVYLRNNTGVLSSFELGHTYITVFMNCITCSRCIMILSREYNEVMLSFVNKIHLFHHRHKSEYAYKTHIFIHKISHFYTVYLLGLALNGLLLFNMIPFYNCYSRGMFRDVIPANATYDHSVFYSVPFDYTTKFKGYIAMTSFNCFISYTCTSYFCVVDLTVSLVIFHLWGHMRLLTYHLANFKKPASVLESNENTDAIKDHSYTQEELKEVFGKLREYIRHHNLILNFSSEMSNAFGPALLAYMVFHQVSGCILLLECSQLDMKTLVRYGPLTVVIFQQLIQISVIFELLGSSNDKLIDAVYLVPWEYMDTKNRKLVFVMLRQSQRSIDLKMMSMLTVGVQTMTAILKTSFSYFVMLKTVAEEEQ
T5 sequence (Q9VNB5 1-486 partner): T1 sequence (Q9VNB5 1-486 partner)

HvirOR13 = tested on: T6, HvirOR13; parameters: species or system Heliothis virescens; conditions: agonist; mass loaded on filter paper in stimulus cartridge (10 μL in paraffin oil), 300 ms pulse; not a molar concentration
T6 construct: gene OR13; ORF in pVALIUM20, UAS-OR transgene expressed in Drosophila at1 neurons (Or67dGAL4 knock-in), host endogenous Orco; with Odorant receptor coreceptor (Drosophila melanogaster, endogenous in host neuron)

HarmOR16 [1] = biological target: T7, HarmOR16 (Helicoverpa armigera, UniProt A0A7D5JJ30); conditions: agonist; mass loaded on filter paper in stimulus cartridge (10 μL in paraffin oil), 300 ms pulse; not a molar concentration
T7 construct: ORF in pVALIUM20, UAS-OR transgene expressed in Drosophila at1 neurons (Or67dGAL4 knock-in), host endogenous Orco; with Odorant receptor coreceptor (Drosophila melanogaster, endogenous in host neuron)
T7 sequence (A0A7D5JJ30 1-422): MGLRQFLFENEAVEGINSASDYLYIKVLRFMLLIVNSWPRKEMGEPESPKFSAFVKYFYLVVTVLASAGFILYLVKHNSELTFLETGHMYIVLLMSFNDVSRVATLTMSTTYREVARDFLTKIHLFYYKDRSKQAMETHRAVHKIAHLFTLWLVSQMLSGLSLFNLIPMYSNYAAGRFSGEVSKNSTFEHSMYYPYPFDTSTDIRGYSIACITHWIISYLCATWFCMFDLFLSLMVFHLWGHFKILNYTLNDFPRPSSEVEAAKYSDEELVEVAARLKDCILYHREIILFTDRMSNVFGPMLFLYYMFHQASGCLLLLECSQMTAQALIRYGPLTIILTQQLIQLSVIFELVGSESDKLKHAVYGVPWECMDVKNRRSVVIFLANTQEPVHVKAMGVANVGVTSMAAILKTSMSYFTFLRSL
T7 sequence (Q9VNB5 1-486 partner): T1 sequence (Q9VNB5 1-486 partner)

HvirOR16 = tested on: T8, HvirOR16; parameters: species or system Heliothis virescens; conditions: agonist; mass loaded on filter paper in stimulus cartridge (10 μL in paraffin oil), 300 ms pulse; not a molar concentration
T8 construct: gene OR16; ORF in pVALIUM20, UAS-OR transgene expressed in Drosophila at1 neurons (Or67dGAL4 knock-in), host endogenous Orco; with Odorant receptor coreceptor (Drosophila melanogaster, endogenous in host neuron)

HarmOR16 [2] = biological target: T7, HarmOR16; assay type: cell-based; conditions: agonist; odorant on filter paper in stimulus cartridge, 300 ms pulse

EC50 (HarmOR6) | EC50 (HvirOR6) | EC50 (HassOR6) | EC50 (HarmOR16 [1]) | EC50 (HvirOR16) | SMILES | also measured
3.85e-05 g | 0.000126 g | 9.66e-05 g | – | – | CCCC/C=C\CCCCCCCCO [Z9-14:OH] | –
– | – | – | – | – | CCCC/C=C\CCCCCCCCCC=O [Z11-16:Ald, (Z)-11-hexadecenal] | EC50 (HassOR13): 0.000242 g; EC50 (HarmOR13): 0.000213 g; EC50 (HvirOR13): 0.000216 g
– | 2.75e-05 g | – | 0.00126 g | – | CCCC/C=C\CCCCCCCC=O [Z9-14:Ald, (Z)-9-tetradecenal] | –
– | – | – | 7.94e-05 g | 3.89e-05 g | CCCC/C=C\CCCCCCCCCCO [Z11-16:OH, (Z)-11-hexadecenol] | –
– | – | – | – | 8.88e-05 g | CCCC/C=C\CCCCCCCCCCOC(C)=O [Z11-16:OAc, (Z)-11-hexadecenyl acetate] | single sensillum recording, transgenic fly at1 neurons (HarmOR16 [2]): responded to the sex pheromone components Z9-14:Ald, Z11-16:OH, and Z11-16:OAc
5.84e-05 g | – | 5.99e-05 g | – | – | CCCCCC/C=C\CCCCCCCCO [Z9-16:OH, (Z)-9-hexadecenol] | –

Reference: PMC6125646, “Proceeding From in vivo Functions of Pheromone Receptors: Peripheral-Coding Perception of Pheromones From Three Closely Related Species, Helicoverpa armigera, H. assulta, and Heliothis virescens” (Frontiers in Physiology, 2018)
